Source: patent US20230399341A1, “7-PHENYL SUBSTITUTED 2-AMINOQUINAZOLINE INHIBITORS OF HPK1” (MERCK SHARP & DOHME LLC, priority 2020, published 2023)

Molecular target: T1, Human HPK1, catalytic domain (Homo sapiens, UniProt Q92918)
T1 sequence (Q92918 1-346): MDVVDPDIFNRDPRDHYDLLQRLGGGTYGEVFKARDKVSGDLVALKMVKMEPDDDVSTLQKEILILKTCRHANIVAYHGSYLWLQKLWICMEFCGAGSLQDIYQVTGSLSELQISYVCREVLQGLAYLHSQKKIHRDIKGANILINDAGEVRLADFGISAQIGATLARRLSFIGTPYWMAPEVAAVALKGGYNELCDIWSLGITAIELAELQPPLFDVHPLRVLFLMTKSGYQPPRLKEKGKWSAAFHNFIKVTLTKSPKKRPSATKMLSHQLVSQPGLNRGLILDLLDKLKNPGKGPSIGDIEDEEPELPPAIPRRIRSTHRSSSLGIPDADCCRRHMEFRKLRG
Test: HPK1-SLP76 TR-FRET Assay
Assay type: biochemical
Settings: 75 pM HPK1, ATP 10 uM, SLP76 10 nM, 30 min pre-incubation, 60 min reaction

Row | IC50 [nM] | Compound
1 | 1.23 | Cc1c(-c2cc3nc(Nc4cc5c(cn4)CCN(C)C5)ncc3c(N)c2F)cnc2c1NCCO2 [Compound 2-142, 6-fluoro-7-(8-methyl-2,3-dihydro-1H-pyrido[2,3-b][1,4]oxazin-7-yl)-N~2~- (6-methyl-5,6,7,8-tetrahydro-2,6-naphthyridin-3-yl)quinazoline-2,5-diamine]
2 | 0.482 | Cc1c(-c2cc3nc(Nc4cnc5c(c4)CN(C)CC5)ncc3cc2F)cnc2c1NCCO2 [Compound 1-135, 6-fluoro-7-(8-methyl-2,3-dihydro-1H-pyrido[2,3-b][1,4]oxazin-7-yl)-N-(6-methyl-5,6,7,8-tetrahydro-1,6-naphthyridin-3-yl)quinazolin-2-amine]
3 | 0.0731 | CC(=O)Nc1ccc(Nc2ncc3c(N)c(F)c(-c4cnc5c(c4C)NCCO5)cc3n2)cc1 [Compound 2-15]
4 | 114 | COc1cc2c(cc1Nc1ncc3ccc(-c4cc(N)cc(C#N)c4)cc3n1)CNCC2 [Compound 1-62, 3-amino-5-{2-[(6-methoxy-1,2,3,4-tetrahydroisoquinolin-7-yl)amino]quinazolin-7-yl}benzonitrile]
5 | 0.0851 | Cc1c(-c2cc3nc(Nc4ccc(S(C)(=O)=O)cc4)ncc3c(N)c2F)cnc2c1NCCO2 [Compound 2-17, 6-fluoro-7-(8-methyl-2,3-dihydro-1H-pyrido[2,3-b][1,4]oxazin-7-yl)-N~2~- [4-(methylsulfonyl)phenyl] quinazoline-2,5-diamine]
6 | 20 | COc1cc2c(cc1Nc1ncc3ccc(-c4cnc5cccnc5c4)cc3n1)CN(C)CC2 [Compound 1-25, N-(6-methoxy-2-methyl-1,2,3,4-tetrahydroisoquinolin-7-yl)-7-(,15-naphthyridin-3-yl)quinazolin-2-amine]
7 | 130 | COc1cc2c(cc1Nc1ncc3ccc(-c4cccc(C(C)=O)c4)cc3n1)CNCC2 [Compound 1-66, 1-(3-{2-[(6-methoxy-1,2,3,4-tetrahydroisoquinolin-7-yl)amino]quinazolin-7-yl}phenyl)ethan-1-one]
8 | 81.5 | COc1cc2c(cc1Nc1ncc3ccc(Nc4cccc(C(=O)N(C)C)c4)cc3n1)CN(C)CC2 [Compound 3-34, 3-({2-[(6-methoxy-2-methyl-1,2,3,4-tetrahydroisoquinolin-7-yl)amino]quinazolin-7-yl}-amino)-N,N-dimethylbenzamide]
9 | 0.0399 | Cc1c(-c2c(F)c(N)c3cnc(Nc4ccc(CS(C)(=O)=O)cc4)nc3c2Cl)cnc2c1NCCO2 [Compound 2-92, (+ or −)-8-chloro-6-fluoro-7-(8-methyl-2,3-dihydro-1H-pyrido[2,3-b[1,4]oxazin-7-yl)-N~2~- {4-[(methylsulfonyl)methyl]phenyl}quinazoline-2,5-diamine]
10 | 0.152 | COc1cc2c(cc1Nc1ncc3c(N)c(F)c(-c4cnc5c(c4C)NCCO5)cc3n1)C(C)N(C)CC2 (single isomer, unassigned) [Compound 2-35, (S or R)-6-fluoro-N^2-(6-methoxy-1,2-dimethyl-1,2,3,4-tetrahydroisoquinolin-7-yl)-7-(8-methyl-2,3-dihydro-1H-pyrido[2,3-b][14]oxazin-7-yl)quinazoline-2,5-diamine]
11 | 140 | COc1cc2c(cc1Nc1ncc3ccc(-c4ccc5c(c4)OCCO5)cc3n1)CNCC2 [Compound 1-70, 7-(2,3-dihydro-1,4-benzodioxan-6-yl)-N-(6-methoxy-1,2,3,4-tetrahydroisoquinolin-7-yl)quinazolin-2-amine]
12 | 148 | COc1cc2c(cc1Nc1ncc3ccc(-c4cc(S(=O)(=O)N(C)C)ccc4C)cc3n1)CNCC2 [Compound 1-79, 3-{2-[(6-methoxy-1,2,3,4-tetrahydroisoquinolin-7-yl)amino]quinazolin-7-yl}-N,N,4-trimethylbenzene-1-sulfonamide]
